Laboratory results from patent publication US20230271924A1 (published 2023).

melting point	SMILES
69 to 70 °C	CCCCCCCC(=O)Oc1cccc2[nH]cc(CCN(C)C)c12
58 to 59 °C	CCCCCCCCCCCCCC(=O)Oc1cccc2[nH]cc(CCN(C)C)c12
